Results reported in US8236808B2, “Pyrazine derivatives as ENAC blockers” (Novartis AG, priority 2008, dated 2012).
Where a name gives a salt, the structure may show the parent alone.

Each molecule was assayed against T1, epithelial sodium channel (ENaC) (Homo sapiens, UniProt P37088+P51168+P51170) (assay: Short circuit current (ISC) measurements in human bronchial epithelial cells, inhibition of amiloride-sensitive ISC). Conditions: inhibition of the amiloride-sensitive ISC; HBECs cultured at air-liquid interface, Ussing chamber, compound added to apical chamber.
T1 construct: host or cells: primary human bronchial epithelial cells (HBECs), differentiated at the air-liquid interface
T1 sequence (P37088 1-669): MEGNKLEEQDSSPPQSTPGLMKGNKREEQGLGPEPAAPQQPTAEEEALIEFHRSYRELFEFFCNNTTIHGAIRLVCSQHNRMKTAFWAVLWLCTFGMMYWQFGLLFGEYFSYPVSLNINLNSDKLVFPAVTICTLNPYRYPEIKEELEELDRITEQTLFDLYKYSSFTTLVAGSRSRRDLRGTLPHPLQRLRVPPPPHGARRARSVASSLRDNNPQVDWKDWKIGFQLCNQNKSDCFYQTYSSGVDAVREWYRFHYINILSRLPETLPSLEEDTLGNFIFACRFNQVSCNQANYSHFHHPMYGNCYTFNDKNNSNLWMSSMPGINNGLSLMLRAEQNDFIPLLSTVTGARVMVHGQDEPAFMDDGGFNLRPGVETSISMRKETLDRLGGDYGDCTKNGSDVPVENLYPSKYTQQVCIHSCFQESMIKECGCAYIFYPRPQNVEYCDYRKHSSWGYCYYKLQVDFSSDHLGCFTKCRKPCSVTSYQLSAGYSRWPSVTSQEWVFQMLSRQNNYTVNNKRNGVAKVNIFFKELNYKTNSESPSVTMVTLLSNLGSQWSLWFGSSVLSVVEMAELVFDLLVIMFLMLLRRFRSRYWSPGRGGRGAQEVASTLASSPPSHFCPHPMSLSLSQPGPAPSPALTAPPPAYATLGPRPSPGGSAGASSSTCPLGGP
T1 sequence (P51168 1-640): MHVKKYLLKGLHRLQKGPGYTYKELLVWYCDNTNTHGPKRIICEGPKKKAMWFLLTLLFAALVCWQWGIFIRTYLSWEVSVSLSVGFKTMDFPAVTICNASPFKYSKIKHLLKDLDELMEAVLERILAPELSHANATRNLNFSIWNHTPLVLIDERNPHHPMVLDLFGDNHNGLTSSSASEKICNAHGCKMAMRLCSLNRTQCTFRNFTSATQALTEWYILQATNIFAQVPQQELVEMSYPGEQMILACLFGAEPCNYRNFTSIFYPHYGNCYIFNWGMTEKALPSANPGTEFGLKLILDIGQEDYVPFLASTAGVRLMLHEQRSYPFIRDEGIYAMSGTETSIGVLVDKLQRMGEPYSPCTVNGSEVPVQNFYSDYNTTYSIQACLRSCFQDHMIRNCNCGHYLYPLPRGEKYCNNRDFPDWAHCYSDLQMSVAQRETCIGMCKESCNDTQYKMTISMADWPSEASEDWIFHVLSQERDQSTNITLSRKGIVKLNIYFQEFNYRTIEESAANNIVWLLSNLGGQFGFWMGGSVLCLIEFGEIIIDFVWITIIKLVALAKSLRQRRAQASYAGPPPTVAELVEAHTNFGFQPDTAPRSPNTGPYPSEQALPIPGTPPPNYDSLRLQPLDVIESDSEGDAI
T1 sequence (P51170 1-649): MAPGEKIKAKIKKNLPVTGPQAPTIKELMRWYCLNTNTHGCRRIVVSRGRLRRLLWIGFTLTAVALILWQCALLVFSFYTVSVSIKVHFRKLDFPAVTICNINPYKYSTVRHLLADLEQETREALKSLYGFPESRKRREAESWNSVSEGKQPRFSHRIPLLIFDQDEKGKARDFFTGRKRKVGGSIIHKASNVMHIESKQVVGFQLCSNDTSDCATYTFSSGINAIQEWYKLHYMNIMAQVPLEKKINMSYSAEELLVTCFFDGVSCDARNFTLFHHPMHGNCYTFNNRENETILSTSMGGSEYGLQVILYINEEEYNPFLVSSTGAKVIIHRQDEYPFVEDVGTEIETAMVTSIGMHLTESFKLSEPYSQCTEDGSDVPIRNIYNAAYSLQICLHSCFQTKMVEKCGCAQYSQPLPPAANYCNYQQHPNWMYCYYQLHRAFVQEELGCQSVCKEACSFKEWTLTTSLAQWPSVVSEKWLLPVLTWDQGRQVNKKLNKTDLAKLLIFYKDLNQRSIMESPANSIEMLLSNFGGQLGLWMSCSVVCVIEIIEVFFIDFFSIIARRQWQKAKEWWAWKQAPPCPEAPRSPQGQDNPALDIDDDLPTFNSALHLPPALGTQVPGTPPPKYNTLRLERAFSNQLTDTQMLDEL
Format: cell-based
Method: Compounds of formula (I), hereinafter referred to alternatively as “agents of the invention”, are useful as pharmaceuticals. In particular, the compounds have good ENaC blocker activity and may be tested in the following assays.
Human Bronchial Epithelial cells (HBECs) (Cambrex) were cultured under air-liquid interface conditions to provide a well differentiated mucociliary phenotype.
HBECs were cultured using a modification of the method described by Gray and colleagues (Gray et al., 1996). Cells were seeded in plastic T-162 flasks and were grown in bronchial epithelial cell growth medium (BEGM; Cambrex) supplemented with bovine pituitary extract (52 μg/mL), hydrocortisone (0.5 μg/mL), human recombinant epidermal growth factor (0.5 ng/mL), epinephrine (0.5 μg/mL), transferrin (10 μg/mL), insulin (5 μg/mL), retinoic acid (0.1 μg/mL), triiodothyronine ([…]), gentamycin (50 μg/mL) and amphotericin B (50 ng/mL). Medium was changed every 48 hours until cells were 90% confluent. Cells were then passaged and seeded (8.25×10^5 cells/insert) on polycarbonate Snapwell inserts (Costar) in differentiation media containing 50% DMEM in BEGM with the same supplements as above but without triiodothyronine and a final retinoic acid concentration of 50 nM (all-trans retinoic acid). Cells were maintained submerged for the first 7 days in culture, after which time they were exposed to an apical air interface for the remainder of the culture period. At this time, media was changed to DMEM:F12 media containing 2% v/v Ultroser G for the remainder of culture. Amphotericin B was removed from all media 3 feeds prior to use in the Ussing Chambers. Cells were used between days 7 and 21 after establishment of the apical-air interface. At all stages of culture, cells were maintained at 37° C. in 5% CO2 in an air incubator.
Snapwell inserts were mounted in Vertical Diffusion Chambers (Costar) and were bathed with continuously gassed Ringer solution (5% CO2 in O2; pH 7.4) maintained at 37° C. containing (in mM): 120 NaCl, 25 NaHCO3, 3.3 KH2PO4, 0.8 K2HPO4, 1.2 CaCl2, 1.2 MgCl2, and 10 glucose. The solution osmolarity was between 280 and 300 mOsmol/kg H2O for all physiological salt solutions used. Cells were voltage clamped to 0 mV (model EVC4000; WPI). RT was measured by applying a 1- or 2-mV pulse at 30-s intervals and calculating RT by Ohm's law. Data were recorded using a PowerLab workstation (ADInstruments).
Test compounds were prepared as a 10 mM stock solution in DMSO (95%). Serial 3-fold dilutions were freshly prepared in an appropriate vehicle (distilled H2O or Ringers solution). The initial concentration was added to the apical chamber as a 1000× concentrate in 5 μL, resulting in a final 1× concentration the 5 mL volume of the Ussing chamber. Subsequent additions of compound were added in a 3.3 μL volume of the 1000× serially diluted stock solution. At the completion of the concentration-response experiment, amiloride (10 μM) was added into the apical chamber to enable the total amiloride-sensitive current to be measured. An amiloride control IC50 was established at the start of each experiment.
Results are expressed as the mean % inhibition of the amiloride-sensitive ISC. Concentration-response curves were plotted and IC50 values generated using GraphPad Prism 3.02. Cell inserts were typically run in duplicate and the IC50 calculated on the mean % inhibition data.
With `C[N+](C)(CCCNC(=O)Cc1ccccc1)CCNC(=O)c1nc(Cl)c(N)nc1N` [Example 53, {2-[(3,5-Diamino-6-chloro-pyrazine-2-carbonyl)-amino]-ethyl}-dimethyl-(3-phenylacetylamino-propyl)-ammonium hexafluorophosphate] the IC50 was 600 nM. `C[N+](C)(CCCc1ccc(OCC(=O)O)cc1)CCNC(=O)c1nc(Cl)c(N)nc1N` [Example 133, [3-(4-Carboxymethoxy-phenyl)-propyl]-{2-[(3,5-diamino-6-chloro-pyrazine-2-carbonyl)-amino]-ethyl}-dimethyl-ammonium trifluoroacetate] gave an IC50 of 6520 nM. `C[N+](C)(CCNC(=O)CCc1ccc(Cl)cc1)CCNC(=O)c1nc(Cl)c(N)nc1N` [Example 33, {2-[3-(4-Chloro-phenyl)-propionylamino]-ethyl}-{2-[(3,5-diamino-6-chloro-pyrazine-2-carbonyl)-amino]-ethyl}-dimethyl-ammonium hexafluorophosphate] was tested, and the IC50 was 150 nM. In the case of `C[N+](CCCc1ccc(O)cc1)(CCCc1ccc(O)cc1)CCNC(=O)c1nc(Cl)c(N)nc1N` [Example 122, {2-[(3,5-Diamino-6-chloro-pyrazine-2-carbonyl)-amino]-ethyl}-bis-[3-(4-hydroxy-phenyl)-propyl]-methyl-ammonium trifluoroacetate], the IC50 is reported as 130 nM. `CCC[C@@H](CNC(=O)c1nc(Cl)c(N)nc1N)[N+](C)(C)CCCc1ccc(OC)cc1` [Example 120, ((S)-1-{[(3,5-Diamino-6-chloro-pyrazine-2-carbonyl)-amino]-methyl}-butyl)-[3-(4-methoxy-phenyl)-propyl]-dimethyl-ammonium trifluoroacetate] gave an IC50 of 4 nM. `CCC[C@H](CNC(=O)c1nc(Cl)c(N)nc1N)[N+](C)(C)C` [Example 1, ((R)-1-{[(3,5-Diamino-6-chloro-pyrazine-2-carbonyl)-amino]-methyl}-butyl)-trimethyl-ammonium iodide] was tested, and the IC50 was 250 nM. `C[N+](C)(CCCCNC(=O)Cc1ccc(OCc2ccccc2)cc1)CCNC(=O)c1nc(Cl)c(N)nc1N` [Example 63, {4-[2-(4-Benzyloxy-phenyl)-acetylamino]-butyl}-{2-[(3,5-diamino-6-chloro-pyrazine-2-carbonyl)-amino]-ethyl}-dimethyl-ammonium bromide] gave an IC50 of 43 nM. Work on `C[N+](C)(CCCc1ccc(OCC(O)CO)cc1)CCNC(=O)c1nc(Cl)c(N)nc1N` (stereo not drawn) [Example 126, {2-[(3,5-Diamino-6-chloro-pyrazine-2-carbonyl)-amino]-ethyl}-{3-[4-(2,3-dihydroxy-propoxy)-phenyl]-propyl-dimethyl-ammonium trifluoroacetate] yielded an IC50 of 2270 nM. For `COc1ccc(CCC[N+](C)(C)CCNC(=O)c2nc(Cl)c(N)nc2N)cc1` [Example 27, {2-[(3,5-diamino-6-chloro-pyrazine-2-carbonyl)-amino]-ethyl}-[3-(4-methoxy-phenyl)-propyl]-dimethyl-ammonium bromide], the IC50 was 220 nM. `COc1ccc(CCC[N+](CCCc2ccc(OC)cc2)(CCCc2ccc(OC)cc2)CCNC(=O)c2nc(Cl)c(N)nc2N)cc1` [Example 18, {2-[(3,5-Diamino-6-chloro-pyrazine-2-carbonyl)-amino]-ethyl}-tris-[3-(4-methoxy-phenyl)-propyl]-ammonium trifluoroacetate] was tested, and the IC50 was 37 nM. In the case of `C[N+](C)(C)[C@@H](CCCCNC(=O)CCc1ccc(OCc2ccccc2)cc1)CNC(=O)c1nc(Cl)c(N)nc1N` [Example 14, ((S)-5-[3-(4-Benzyloxy-phenyl)-propionylamino]-1-{[(3,5-diamino-6-chloro-pyrazine-2-carbonyl)-amino]-methyl}-pentyl)-trimethyl-ammonium iodide], the IC50 is reported as 46 nM. Molecule `COC(=O)COc1ccc(CCC[N+](C)(C)CCNC(=O)c2nc(Cl)c(N)nc2N)cc1` [Example 132, {2-[(3,5-Diamino-6-chloro-pyrazine-2-carbonyl)-amino]-ethyl}-[3-(4-methoxycarbonylmethoxy-phenyl)-propyl]-dimethyl-ammonium trifluoroacetate] has an IC50 of 1490 nM.
